Consider four molecules from patent US20240122934A1, “COMPOSITIONS AND METHODS OF TREATMENT FOR INHIBITING CAPILLARY TUBE REGRESSION” (University of South Florida, priority 2019, published 2024).

“Also recorded” adds a separate entry of the source.

One assay has as its system THP-1 macrophages. Put plainly: TLR ligand activation of cells; conditioned medium tested on EC tube networks. The format is cell-based, human. The method, then: (§1) (A,B) The TLR ligand Pam3CSK4 was added at 100 ng/ml to THP-1 macrophages that were differentiated in two separate ways (THP-1-VT vs. THP-1-T) or to ECs, fibroblasts (Fib), or pericytes (Peri). Conditioned medium was collected after 4 hr and was added at a 1:5 dilution to established EC tube networks vs. control Pam3CSK4 or control RPMI1640 media. Two independent conditioned media batches were obtained for both the THP-1-VT (i.e. VT1, VT2) and THP-1-T (i.e. T1, T2) macrophage cells. IL-la and IL-1β were added separately at 1 ng/ml. After 24 hr, cultures were fixed, stained, photographed (A) and quantitated for EC tube area (B). Bar equals 200 μm. […] The values (±SD) were obtained from analyzed fields (n=15) where total lumen and tube area was measured. Asterisks indicate significance at p<0.05 compared to control. (C) LPS was added at the indicated concentrations (ng/ml) in the presence or absence of recombinant LPS binding protein (LBP) at 1 μg/ml to EC tube networks. EC lumen areas were measured after 24 hr following these additions. (D) THP-T macrophages were treated with control or 100 ng/ml of Pam3CSK4 (Pam) or LPS. After 4 hr, total RNA was obtained, and RT-PCR analysis was performed evaluating the mRNA expression of indicated genes. […] From the real-time videos, EC lumen areas were measured over time (n=6). […]

In assay [1] the test system is EC tube networks. Put plainly: 3D collagen EC tube regression assay. The format is cell-based, human. Conditions: for EC tube regression (pro-regressive activity): factor added to established 48 hr EC tube networks, 24 hr. Here is the method: (A) EC cultures with tube networks were established for 48 hr followed by the addition of indicated cytokines or thrombin (Thr) for 24 hr. IL-1β and IL-la were added at 1 ng/ml, TNFα at 3.16 ng/ml and thrombin at 1 μg/ml. Bars equal 100 or 200 μm. (B,C,D) EC tube networks were treated with the indicated cytokines and varying concentrations in dose-response analyses and in the presence or absence of thrombin added at 1 μg/ml. After 24 hr, cultures were fixed, stained and quantitated for EC lumen area per field. These curves are from a representative experiment using triplicate wells for each condition. The values (±SD) are derived from analyzed fields (n=15) where total lumen and tube area was measured. Asterisks indicate significance at p<0.05 compared to control and squares indicate significance at p<0.05 compared to the cytokine treatments alone.
ECs (passages 3-6) and pericytes (passages 3-12) were cultured as previously described^49,50. THP-1 cells were cultured in RPMI-1640-20% FCS. THP-1-T macrophages were differentiated for 72 hr. with 50 ng/ml of phorbol ester in RPMI-20% FCS, and then treated for 48 hr. in RPMI-2% FCS prior to adding TLR ligands. THP-1-VT macrophages were induced to differentiate for 72 hr. with 10^-7 M vitamin D3 (Calcitriol) in RPMI-20% FCS, followed by 48 hr. with phorbol ester in RPMI-2% FCS prior to adding TLR ligands.
(§2) ECs or ECs with pericytes were suspended in 3D collagen matrices and incubated at 37° C. in serum-free defined media as described^9,50,51. Recombinant factors or THP-1 conditioned media were added at the indicated doses to existing 48 or 72 hr. cultures with EC only or EC-pericyte tube networks, respectively. After 24 or 48 hr. for EC only or EC-pericyte tubes, respectively, cultures were fixed in 3% glutaraldehyde or 3% paraformaldehyde. EC tube areas were traced and quantitated as described. In some cases, neutralizing antibodies were added (10 μg/ml). For signaling experiments, lysates were prepared from control vs. regressing 3D cultures at different time points.

A further assay concerns THP-T macrophages. Put plainly: RT-PCR of cytokine mRNA in TLR ligand-treated macrophages. Type of assay: cell-based, human. Conditions: 100 ng/ml, 4 hr. The method, then:
as §1

Assay [2] concerns EC-pericyte tube networks. Put plainly: EC-pericyte co-culture regression assay. Conditions: added to 72 hr co-cultures. The format is cell-based, human. The method, then: (A) EC-pericyte (GFP-labeled) co-cultures were established and allowed to form for 72 hr and at this time, the combination of IL-1β (10 ng/ml), TNFα (10 ng/ml) and thrombin (11 μg/ml) were added in combination compared to control and real-time movies were performed. Light and fluorescent image overlays over time are shown in representative fields. Arrowheads indicate clusters of pericytes that accumulate together during regression responses in response to these three factors in combination. After 48 hr, fixed cultures were stained for CD31 to detect ECs and fluorescence image overlays were performed. (B) The same set up was established as in A, except that each individual factor and combination of factors were added. After 48 hr, the cultures were fixed and stained for CD31. Confocal images were obtained, and fluorescence overlay images are shown.
(A) EC-pericyte co-cultures were established for 72 hr, and then were left untreated or with IL-1β (10 ng/ml), TNFα (10 ng/ml), and thrombin (11 μg/ml) in combination. After 48 hr, cultures were fixed and stained with CD31, confocal microscopy and 3D reconstruction of the images allowed for an upright and side view. (B) EC-pericyte tube networks were treated with the indicated single and combined factors and after fixation, EC tube area was quantitated. […] The values (±SD) were obtained from analyzed fields (n=15) where total lumen and tube area was measured. Asterisks indicate increased significance at p<0.05 compared to control, the squares indicate decreased significance at p<0.05 relative to the single factor conditions and the triangle indicates significance at p<0.05 relative to the double factor conditions. (C) EC-pericyte tube networks were treated with indicated combinations of factors. After 48 hr, total GFP fluorescence per well was quantitated as a measure of pericyte number since they are GFP-labeled. […] Asterisks indicate significance at p<0.05 compared to control.
as §2

For assay [3], the system named is EC tube networks. Put plainly: Western blots of lysates from regressing 3D EC cultures (regression signaling signature). The format is cell-based, human. Conditions: 24-hr. time course, compared to control EC tubes. Here is the method:
(A,B) ECs tube networks were treated with the indicated factors vs. control and at different time points, lysates were prepared from the 3D cultures. Western blots were performed using the different indicated antibodies. (C) Schematic illustrating findings that define a capillary regression signaling signature.
THP-T macrophages were treated with Pam3CSK4 (Pam) or LPS and conditioned medium was added at a 1:20 or 1:50 dilution, respectively, to EC tube networks. Control and IL10-treated cultures were compared with the conditioned medium treatments within the same experiment. At the indicated time points, lysates were obtained, and Western blots were performed with the indicated antibodies.
as §2
(In general: Immunoblotting shows a protein as a band on a membrane.)

Assay [4] has as its system Lymphatic EC tube networks. Put plainly: lymphatic EC tube network regression. The format is cell-based. To be noted: cytokines 10 ng/ml, thrombin 1 μg/ml, 24 hr. Here is the method:
Lymphatic EC tube networks were established for 48 hr and at that time, the indicated pro-inflammatory mediators were added. IL-10 and TNFα were added at 10 ng/ml, while thrombin was added at 1 μg/ml. (A) After 24 hr, cultures were fixed, stained with toluidine blue and photographed. (B) The cultures in (A) were quantitated for EC tube area. Asterisks indicate significance at p<0.01 compared to control.

Another assay concerns EC sprouts and tubes. Put plainly: angiogenic sprouting assay (ECs invading from monolayer surface). To be noted: angiogenic sprouting system. The format is cell-based, human. Here is the method: (A) ECs were seeded onto a monolayer surface and then allowed to invade into the gels to form tubes over a 48 hr period. At this time, cultures were then treated with IL-1β or TNFα and in the absence or presence of FIST. Cultures were fixed after 24 hr, stained and photographed to visualize the monolayer surface and the underlying sprouts and tubes. (B) Cultures were established just like in A and then the Pak2 inhibitor, Frax486 (2.5 μM) or the microtubule depolymerizing agent, vinblastine (100 nM), were added to media in the presence or absence of FIST. Cultures were fixed after 24 hr, stained and photographed. Bar equals 200 μm.
Studies to define the factors and signals that promote endothelial cell (EC) lumen and tube formation, EC sprouting and EC-pericyte tube co-assembly have been performed under serum-free defined conditions so that the functional role of individual molecules that regulate these processes can be assessed. Disclosed herein, the factors that control capillary regression are defined. Capillary regression is a process that has been largely neglected despite the likelihood that it may present a fundamental pathogenic feature of major human diseases where capillary disassembly and regression are known to occur (i.e. hypertension, diabetes, ischemic disease in many tissues, neurodegenerative diseases, and malignant cancer). […] EC tube networks were allowed to form for 48 hr. (vasculogenesis type of assay) and then added these agents in dose-response experiments, showing that they potently induce EC tube regression (at low ng levels) (FIG. 1). Real-time movies were performed to visualize these pro-regressive activities. This experimental approach has utilized assays that mimic vasculogenesis or angiogenic sprouting and these factors induce regression equally well in both assay systems. […] These studies have been performed primarily in 3D collagen matrices, but the same result is also observed in 3D fibrin matrices.

In another assay the test system is hyaloid vessels. Put plainly: hyaloid vascular regression in mice. Conditions: intravitreal injection, vessel number quantitated at P8. Type of assay: in vivo. Here is the method:
(A) Intravitreal injection of blocking antibodies directed to both IL-10 and TNFα vs control IgG was performed at postnatal day (P) 6, and hyaloid vessel number was quantitated at P8. (B) Intravitreal injection of IL-10 was performed at P5 vs vehicle control, and hyaloid vessel number was quantitated at P8. (C and D) Hyaloid vessels at P2 and P8 were immunostained for phospho-MLC2 (p-MLC; red) and CD31-positive endothelial cells (ECs; green), and double-positive cells were imaged and quantitated over time. Scale bar=100 μm. E and F, Analysis of ICAM-1 expression at the mRNA (E) and protein level (F) during different stages of hyaloid vessel regression. CD indicates cluster of differentiation; DAPI, 4′6-diamidino-2-phenylindole; ICAM, intercellular adhesion molecule; and MLC, myosin light chain.
In some embodiments, physiologic capillary regression can be modeled in a mouse by examining the postnatal regression of the eye hyaloid vasculature. In some embodiments, this vascular regressive response can depend on the presence of adjacent macrophages which decorate this developmental vascular bed. […] In some embodiments, EC capillary regression during hyaloid regression can include increased expression of ICAM-1 (at the mRNA and protein level) and increased presence of phospho-MLC2 in regressing hyaloid ECs.

For Pam3CSK4, in the assay with THP-1 macrophages (ECs, pericytes and fibroblasts), the “induction of pro-regressive activities in conditioned media of other cell types” value is reported as “failed to induce pro-regressive activities in their conditioned media”. Besides, the “induction of pro-regressive activities in macrophage conditioned medium” value in the assay on THP-1 macrophages (TLR ligand 100 ng/ml added to macrophages, medium collected after 4 hr) was “highly potent pro-regressive activities in the macrophage conditioned medium”. For the same molecule, the “EC tube regression (pro-regressive activity)” value in the assay with EC tube networks [1] was “Neither Pam3CSK4 or LPS by themselves (with and without the presence of LPS-binding protein, LBP) had any ability to directly cause EC tube regression”. In the assay with THP-T macrophages, the “mRNA expression of inflammatory cytokines” value was “marked upregulation of TNFα, IL-1β, IL-la, IL-6 and IL-10 (i.e. an anti-inflammatory cytokine) as well as tissue factor (i.e. F3)”.

On to TNFα, for which, in assay [2], the “EC tube regression in EC-pericyte co-cultures” value is “marked tube regression in response to each factor individually and, also in combination” and the pericyte numbers result is on record as “an increase in pericyte numbers”. For the same molecule, in the assay on EC tube networks [3], the “ICAM-1 and VCAM-1 levels” value is “Strong upregulation of ICAM-1 and VCAM-1”; the “phospho-Pak2, phospho-cofilin, acetylated tubulin, procaspase3 levels” value was “decreased levels of phospho-Pak2, phospho-cofilin, acetylated tubulin and procaspase3”; the “phospho-p38, phospho-JNK, phospho-MLC2 levels” value was “increased levels of phospho-p38, phospho-JNK, and phospho-MLC2”. For the same molecule, the “EC tube regression in screen of growth factors and cytokines” value in the assay on EC tube networks [1] (40 and 10 ng/ml, 48 hr EC tube networks) is on record as “more potent pro-regressive factors than the other factors described herein”. Moreover, in the assay with EC tube networks [1], the “EC tube regression (pro-regressive activity)” value is “directly cause capillary tube collapse and regression”. The “lymphatic tube network regression” value in assay [4] was “regress”. Further, the “degeneration of sprouts and EC monolayer” value in the assay on EC sprouts and tubes is “induce degeneration of the invading sprouts, but also the EC monolayer surface where the sprouts originated”.

Turning to thrombin, in assay [2], the “EC tube regression in EC-pericyte co-cultures” value is on record as “marked tube regression in response to each factor individually and, also in combination” and the pericyte numbers entry is listed as “an increase in pericyte numbers”. Also, the “EC tube regression (pro-regressive activity)” value with EC tube networks [1] was “directly cause capillary tube collapse and regression; also recorded: less effective”. Moreover, in assay [4], the “lymphatic tube network regression” value was “regress”.

B1: IL-10: anti-inflammatory cytokine (protein, UniProt P22301 19-178, looked up)
Interleukin-10: SPGQGTQSENSCTHFPGNLPNMLRDLRDAFSRVKTFFQMKDQLDNLLLKESLLEDFKGYLGCQALSEMIQFYLEEVMPQAENQDPDIKAHVNSLGENLKTLRLRLRRCHRFLPCENKSKAVEQVKNAFNKLQEKGIYKAMSEFDIFINYIEAYMTMKIRN
As for B1, in the assay on hyaloid vessels, the hyaloid vessel regression result was “inhibited hyaloid regression”.
